Data on 9 compounds can be found in US20110306641A1, “NOVEL 2,6-SUBSTITUTED-3-NITROPYRIDINE DERIVATIVE, METHOD FOR PREPARING SAME, AND PHARMACEUTICAL PREPARATION INCLUDING SAME” (priority 2008, published 2011).

Structures are written as SMILES.

Data set [1] relates to osteoclastogenesis (formation of multinucleated osteoclasts). The data set is described as follows: Osteoclastogenesis inhibition via co-culture system (bone marrow cells + osteoblasts, TRAP staining). Conditions: 7 days co-culture, vs vehicle control; for Osteoclastogenesis inhibition (%): 1 μM; for inhibition at 1 µM: Mus musculus, Osteoclast, 168 h. Format: cell-based, mouse. How it is done:
Osteoclastogenesis inhibitory effects of the compounds of the present invention were evaluated via a co-culture system (Reference: Endocrinology 137(1996), 2187 to 2190, E. Jimi et al.). A specific experimental method is as follows.
1) Preparation of Bone Marrow Cells and Osteoblasts
Femur and tibia were aseptically dissected from 6 to 8-week-old male ddY mice to harvest bone marrow cells by a conventional method using a syringe. In brief, tissues were removed from the dissected bone, the bone ends were cut off with scissors, and the bone marrow was isolated by pushing a medium-containing syringe (23G) against the one end of the cut bone. The isolated bone marrow was subjected to repeated piston movement of a syringe such that single cells were obtained (Reference: Endocrinology 123(1988), 2600 to 2602, Takahashi et al.). After removal of red blood cells within the bone marrow, the bone marrow cells recovered by centrifugation were placed in an α-MEM supplemented with 10% fetal bovine serum (FBS), followed by counting of nucleated cells and then were immediately used for a co-culture system.
For the preparation of osteoblasts (Calvarial cells), the cranial bone were aseptically dissected from 1 to 2-day-old neonatal ICR mice and subjected to continuous reaction with a 0.2% collagenase solution to separate osteoblasts. The cell-suspended supernatant was centrifuged to recover osteoblasts which were grown to full confluence in an α-MEM supplemented with 10% FBS and then diluted to a desired cell density for use in the experiment.
2) Osteoclastogenesis Inhibition Experiment Via Co-Culture System
As the medium used for a co-culture system, a differentiation medium with the addition of differentiation factors 1α,25-dihydroxyvitamin D3 (10^−8M) and dexamethasone (10^−8M) to α-MEM supplemented with 10% FBS was used for the induction of osteoclastogenesis. First, the compounds of the present invention dissolved in dimethyl sulfoxide (DMSO) at a concentration of 1 mM were diluted to 2 μM using the above-mentioned differentiation medium. As a vehicle control group, 0.2% (v/v) DMSO was added to the medium. 100 μL/well of each medium was added to 96-well plates. In addition, the above prepared bone marrow cells and osteoblasts were plated onto 96-well plates at a density of 1×10^5 cells/50 μL/well and 3×10^3 cells/50 μL/well, respectively. The total volume/well was 200 μL and the final compound concentration was 1 μM. The control group was 0.1% (v/v) DMSO. The cells were cultured with exchange of the culture media with fresh media containing differentiation factors and test materials (materials containing the compounds of the present invention) at an interval of 2 to 3 days.
7 days after culturing of cells, the formation of multinucleated osteoclasts was confirmed by microscopic examination, the medium was removed from the wells and then the cells were fixed in a 10% phosphate-buffered formalin solution. The degree of formation of mature osteoclasts was measured taking advantage of the characteristics of osteoclasts showing a positive reaction to a tartrate-resistant acid phosphatase (TRAP) staining solution. The TRAP staining solution was prepared in a manner such that naphthol AS-MS phosphate as a substrate and a coloring agent (Fast Red Violet LB salt) were dissolved in N,N-dimethylformamide, and a 0.1N NaHCO3 buffer solution containing 50 mM of tartaric acid was added thereto. Among the TRAP-positive cells under a light microscope, multinucleated osteoclasts having 6 to 7 nuclei were regarded as mature osteoclasts.
The degree of inhibition of osteoclastogenesis was calculated according to the following equation 1. The results are summarized in Table 2 below (Experiments were carried out for 4 wells/experimental group (n=4), and the results are given in terms of mean±standard deviation) […]

Data set [2] has as its system Calvarial cell. The experiment in a line: Cytotoxicity test (MTT) in osteoblasts (calvarial cells). Conditions: 1 μM, 72 hours, vs vehicle control.
Experimental: Drugs were diluted to a concentration of 2 μM in α-MEM culture media supplemented with 10% FBS. The vehicle control group was established to contain 0.2% DMSO. 100 μL/well of the diluted drugs were dispensed into 96-well plates to which osteoblasts (calvarial cells) prepared in Experimental Example 1 were then added at a density of 1.0×10^4 cells/100 μL/well. Here, the final compound concentration in the cell culture was 1 μM, and the vehicle control group contained 0.1% DMSO. The cells were cultured in a 5% CO2 inhibitorr at 37° for 72 hours. 25 μL of 3-(4,5-dimethyl-2-thiazolyl)-2,5-diphenyl-2H-tetrazolium bromide (MTT) dissolved in PBS (2 mg/mL) was added to each cell culture 4 hours before the end of culture. After completion of the reaction, the plates were centrifuged, the media were discarded, and 100 μL of formazan was added and dissolved in dimethyl sulfoxide (DMSO). Finally, the absorbance of the developed plates was measured at 540 nm. The cell viability was expressed as % concentration in comparison with the vehicle control group.
In data set [3] the test system is MC3T3-E1 cell. The experiment in a line: Alkaline phosphatase (ALP) activity in MC3T3-E1 cells. The data set is classed as cell-based. As to conditions: 3 days; for activity at 1 µM: Mus musculus, 72 h, read-out: ALP activity (1 μM, % of Control) MC3T3-E1 cell. How it is done: (§1) Differentiation and activity of osteoblasts were indirectly evaluated by measuring an ALP activity having a close relationship with osteogenesis.
(§2) Osteoblasts (Calvarial cells) prepared in Experimental Example 1 and MC3T3-E1 cells (available from RIKEN Cell Bank, Japan) were collected in α-MEM supplemented with 10% FBS, followed by cell counting. The cells were dispensed into 24-well cultureware at a density of 2×10^4 cells/well. After culturing of the cells for 24 hours, the culture media were discarded and replaced with fresh media in which test compounds were diluted to a concentration of 1 μM (1 mL/well). In addition, the vehicle control group containing 0.1% DMSO was also treated. Under the conditions where the compounds were treated, the cells were cultured in a 5% CO2 […] at 37° for 3 days. When the experiment was terminated, the supernatant was removed and the cells were washed three times with cold phosphate buffer at 4°. 0.2% Triton X-100 was added to the washed cells which were then subjected to three cycles of freezing at −70° and thawing at room temperature for the complete lysis of cells. The cell extracts were pooled and centrifuged to collect the cell supernatant which was used for the measurement of ALP activity and proteins. The protein concentration was measured using a BCA assay kit (manufactured by Sigma-Aldrich). For the measurement of ALP activity, p-nitrophenylphosphate was added to the cell supernatant which was then incubated at 37° for 30 minutes, and the reaction was terminated with the addition of 50 μL of 0.2N sodium hydroxide. The standard curve was plotted at the absorbance of 405 nm using p-nitrophenol as a standard material and then the absorbance of test materials thus reacted was measured to determine the production amount of p-nitrophenol.
(§3) The ALP activity was calculated by dividing the amount of p-nitrophenol produced from each test material by the protein amount and the reaction time. Therefore, the unit of ALP activity was given in terms of p-nitrophenol/μg protein/min. The results are given in Table 3 where the ALP activity unit of each test material was given in terms of % change through the comparison between the individual test materials and the vehicle control group.

Data set [4] deals with Calvarial cell. The experiment in a line: Alkaline phosphatase (ALP) activity in osteoblasts (Calvarial cells). As to conditions: 3 days; for activity at 1 µM: Mus musculus, 72 h, read-out: ALP activity (1 μM, % of Control) Calvarial cell. The data set is classed as cell-based, mouse. On the procedure: as §1, §2, §3

On to `CN(CCO)c1ccc([N+](=O)[O-])c(Nc2ccc3[nH]ncc3c2)n1` [Compound 7, 2-(1H-indazol-5-yl)amino-6-[(N-methyl-2-hydroxyethyl)amino]-3-nitropyridine], for which, in data set [1], the “Osteoclastogenesis inhibition (%)” value is on record as 72%. The “Cell viability (%) Calvarial cell” value in data set [2] is reported as 103%. Further, in data set [3], the “ALP activity (1 μM, % of Control) MC3T3-E1 cell” value is 155 % of Control. Further, in data set [4], the “ALP activity (1 μM, % of Control) Calvarial cell” value is 221 % of Control.

`CC(C)(C)Nc1ccc([N+](=O)[O-])c(Nc2ccc3[nH]ncc3c2)n1` [Compound 12, 2-(1H-indazol-5-yl)amino-6-(t-butylamino)-3-nitropyridine]: the inhibition at 1 µM in data set [1] was 99%. Also, the “Cell viability (%) Calvarial cell” value in data set [2] amounted to 109%. For the same compound, the activity at 1 µM in data set [3] was 136%; in data set [4] it was 152%.

In the case of `O=[N+]([O-])c1ccc(N2CCNCC2)nc1Nc1ccc2[nH]ncc2c1` [Compound 10, 2-(1H-indazol-5-yl)amino-6-(piperazin-1-yl)-3-nitropyridine], in data set [1], the inhibition at 1 µM was 99%. In addition, the “Cell viability (%) Calvarial cell” value in data set [2] is 95%. For the same compound, the activity at 1 µM in data set [3] amounted to 124%; in data set [4], 189%.

Turning to `CC(C)Nc1ccc([N+](=O)[O-])c(Nc2ccc3[nH]ncc3c2)n1` [Compound 6, 2-(1H-indazol-5-yl)amino-6-(isopropylamino)-3-nitropyridine], the inhibition at 1 µM in data set [1] was found to be 100%. Moreover, the “Cell viability (%) Calvarial cell” value in data set [2] came out at 97%. In addition, the activity at 1 µM in data set [3] came out at 207%; in data set [4], 188%.

Take `CNc1ccc([N+](=O)[O-])c(Nc2ccc3[nH]ncc3c2)n1` [Compound 5, 2-(1H-indazol-5-yl)amino-6-(methylamino)-3-nitropyridine]: in data set [1], the inhibition at 1 µM was determined as 89%. For the same compound, the “Cell viability (%) Calvarial cell” value in data set [2] stood at 112%. The activity at 1 µM in data set [3] came out at 206%; in data set [4], 193%.

For the compound `O=[N+]([O-])c1ccc(N2CCC(O)CC2)nc1Nc1ccc2[nH]ncc2c1` [Compound 9, 2-(1H-indazol-5-yl)amino-6-(4-hydroxypiperidino)-3-nitropyridine], the inhibition at 1 µM in data set [1] was determined as 100%. In addition, in data set [2], the “Cell viability (%) Calvarial cell” value was found to be 105%. The activity at 1 µM came out at 112% in data set [3] and 166% in data set [4].

For `CN(CC1OCCO1)c1ccc([N+](=O)[O-])c(Nc2ccc3[nH]ncc3c2)n1` [Compound 17, 2-(1H-indazol-5-yl)amino-6-[(N-[1,3]-dioxolan-2-ylmethyl)-methylamino]-3-nitropyridine], in data set [1], the “Osteoclastogenesis inhibition (%)” value is 92%. Moreover, the “Cell viability (%) Calvarial cell” value in data set [2] was 89%. For the same compound, the “ALP activity (1 μM, % of Control) MC3T3-E1 cell” value in data set [3] was 188 % of Control. Besides, the “ALP activity (1 μM, % of Control) Calvarial cell” value in data set [4] is on record as 139 % of Control.

Take `CN(C)CC(C)(C)CNc1ccc([N+](=O)[O-])c(Nc2ccc3[nH]ncc3c2)n1` [Compound 16, 2-(1H-indazol-5-yl)amino-6-[(3-dimethylamino-2,2-dimethyl)-propylamino]-3-nitropyridine]: the “Osteoclastogenesis inhibition (%)” value in data set [1] worked out at 89%. Moreover, the “Cell viability (%) Calvarial cell” value in data set [2] was found to be 104%. In data set [3], the “ALP activity (1 μM, % of Control) MC3T3-E1 cell” value is listed as 144 % of Control. Besides, in data set [4], the “ALP activity (1 μM, % of Control) Calvarial cell” value is reported as 123 % of Control.

Consider `CCN(CCO)c1ccc([N+](=O)[O-])c(Nc2ccc3[nH]ncc3c2)n1` [Compound 11, 2-(1H-indazol-5-yl)amino-6-[(N-ethyl-2-hydroxyethyl)amino]-3-nitropyridine], for which the “Osteoclastogenesis inhibition (%)” value in data set [1] was found to be 98%. In addition, the “Cell viability (%) Calvarial cell” value in data set [2] was found to be 105%. In addition, the “ALP activity (1 μM, % of Control) MC3T3-E1 cell” value in data set [3] is 140 % of Control. Also, the “ALP activity (1 μM, % of Control) Calvarial cell” value in data set [4] is given as 143 % of Control.

Usually inhibition stands for the relative decrease from the control value, in per cent.
